Assay results published in PubChem BioAssay (NCI).
Several values for one entry are separate records, joined by “and”; a condition that tells them apart may be missing. Equal entries are not always repeated.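 Briefly, cells in 96-well plates were exposed to five compound concentrations for 48 h, and endpoints were estimated by linear interpolation. GI50 marks 50% less growth. TGI is the concentration that stops growth completely.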

Assays:
Experiment in all cases: NCI-60 cell line screen, 48 h
[1] = test system: COLO 205 colon
[2] = test system: HCC-2998 colon
[3] = test system: HS 578T breast
[4] = test system: IGROV1 ovarian
[5] = test system: NCI-H226 lung
[6] = test system: NCI/ADR-RES ovarian
[7] = test system: RPMI-8226 leukemia
[8] = test system: SN12C renal
[9] = test system: SW-620 colon
[10] = test system: UACC-62 melanoma

Cc1cccc2c(=O)c3c(O)cc(O)cc3n(C)c12
TGI [1]: > 100 µM
TGI [2]: > 100 µM
TGI [3]: > 100 µM
TGI [4]: > 100 µM
TGI [5]: > 100 µM
TGI [6]: > 100 µM
TGI [7]: > 100 µM
TGI [8]: > 100 µM
TGI [9]: > 100 µM
TGI [10]: > 100 µM

Cc1nc2c(C)ccc([N+](=O)[O-])c2c(NCCCN(C)C)c1C
TGI [1]: 47.6 µM
TGI [2]: > 55.4 µM
TGI [3]: > 100 µM
TGI [4]: > 100 µM
TGI [5]: > 100 µM
TGI [6]: > 100 µM
TGI [7]: > 100 µM
TGI [8]: > 100 µM
TGI [9]: > 53 µM
TGI [10]: > 100 µM

CCCCCCCCCCCCCCCCCc1nc(Cl)nc(Cl)c1Cl
TGI [1]: > 100 µM
TGI [2]: > 100 µM
TGI [3]: > 100 µM
TGI [4]: > 100 µM
TGI [5]: 34.6 µM
TGI [6]: > 100 µM
TGI [7]: > 100 µM
TGI [8]: > 100 µM
TGI [9]: > 100 µM
TGI [10]: > 100 µM

O=[N+]([O-])c1ccccc1N=Nc1c(O)[nH]c2c(Cl)cccc12
TGI [1]: > 100 µM
TGI [2]: > 100 µM
TGI [3]: 43.4 µM
TGI [4]: > 47.8 µM
TGI [5]: > 78.2 µM
TGI [6]: > 60.5 µM
TGI [7]: 96.2 µM
TGI [8]: > 57.7 µM
TGI [9]: > 79 µM
TGI [10]: > 82.1 µM

CC1(C)N=C(N)N=C(N)N1c1ccc(CCCC(=O)Nc2ccc(S(=O)(=O)F)cc2)cc1
GI50 [1]: 5.59 µM
TGI [1]: > 100 µM
GI50 [2]: 14.5 µM
TGI [2]: > 100 µM
GI50 [3]: > 100 µM
TGI [3]: > 100 µM
GI50 [4]: 0.57 µM
TGI [4]: > 100 µM
GI50 [5]: 63.1 µM
TGI [5]: > 100 µM
GI50 [6]: > 100 µM
TGI [6]: > 100 µM
GI50 [7]: 5.36 µM
TGI [7]: > 100 µM
GI50 [8]: 6.15 µM
TGI [8]: > 100 µM
GI50 [9]: 1.99 µM
TGI [9]: > 100 µM
GI50 [10]: 2.24 µM
TGI [10]: > 100 µM

COC(=O)c1c(C)nc(C)c2c1C(=O)C(Br)=C(NCc1ccccc1)C2=O
GI50 [1]: 1.7 µM
TGI [1]: 3.63 µM
GI50 [2]: 3.4 µM
TGI [2]: 10.5 µM
GI50 [3]: 10.8 µM
TGI [3]: > 100 µM
GI50 [4]: 2.05 µM
TGI [4]: 5.45 µM
GI50 [5]: 4.01 µM
TGI [5]: 18 µM
GI50 [6]: 2.83 µM
TGI [6]: 8.16 µM
GI50 [7]: 3.24 µM
TGI [7]: 11.7 µM
GI50 [8]: 1.49 µM
TGI [8]: 3.45 µM
GI50 [9]: 3.39 µM
TGI [9]: 10.7 µM
GI50 [10]: 1.41 µM
TGI [10]: 2.93 µM

COc1ccc(OC)c2c(C(C)=O)cccc12
TGI [1]: > 100 µM
TGI [2]: > 100 µM
TGI [3]: > 100 µM
TGI [4]: > 100 µM
TGI [5]: > 100 µM
TGI [6]: > 100 µM
TGI [7]: > 100 µM
TGI [8]: > 100 µM
TGI [9]: > 100 µM
TGI [10]: > 100 µM

COc1ccc2nc3ccccc3c(NCCNCCO)c2c1
GI50 [1]: 0.397 µM
TGI [1]: 1.77 µM
GI50 [2]: 0.898 µM
TGI [2]: 2.5 µM
GI50 [3]: 0.688 µM
TGI [3]: 3.85 µM
GI50 [4]: 0.54 µM
TGI [4]: 3.06 µM
GI50 [5]: 0.947 µM
TGI [5]: 3.38 µM
GI50 [6]: 5.04 µM
TGI [6]: > 89 µM
GI50 [7]: 0.406 µM
TGI [7]: 2.73 µM
GI50 [8]: 0.533 µM
TGI [8]: 7.7 µM
GI50 [9]: 0.362 µM
TGI [9]: 3.66 µM
GI50 [10]: 1.09 µM
TGI [10]: 2.99 µM

COc1cccc(/C=C2\N=C(c3ccccc3)OC2=O)c1
TGI [1]: > 100 µM
TGI [2]: > 100 µM
TGI [3]: > 100 µM
TGI [4]: > 100 µM
TGI [5]: > 100 µM
TGI [6]: 90.6 µM
TGI [7]: 94.1 µM
TGI [8]: > 100 µM
TGI [9]: > 100 µM
TGI [10]: > 100 µM

O=C(/C=C/c1ccc(O)c(O)c1)N1CCN(c2ccc(Cl)cc2)CC1
GI50 [1]: 5.11 µM
TGI [1]: 19.7 µM
GI50 [2]: 10.5 µM
TGI [2]: 23.8 µM
GI50 [3]: 8.04 µM
TGI [3]: 49.4 µM
GI50 [4]: 4.5 µM
TGI [4]: 80.5 µM
GI50 [5]: 4.63 µM
TGI [5]: 26.4 µM
GI50 [6]: 4.61 µM
TGI [6]: 32.9 µM
GI50 [7]: 2.87 µM
TGI [7]: 29.7 µM
GI50 [8]: 4.11 µM
TGI [8]: 42.2 µM
GI50 [9]: 7.28 µM
TGI [9]: 81.4 µM
GI50 [10]: 6.36 µM
TGI [10]: 23.3 µM

NNc1c(C(N)=O)c2c(N)ncnc2n1C1OC(CO)C(O)C1O (centres undefined)
GI50 [1]: < 0.01 µM
TGI [1]: 0.0552 µM and 0.0342 µM
GI50 [2]: < 0.0176 µM and 0.0165 µM
TGI [2]: 0.0462 µM and 0.0691 µM
GI50 [3]: 0.056 µM and 0.107 µM
TGI [3]: 0.826 µM and 2.38 µM
GI50 [4]: 0.0276 µM and 0.0476 µM
TGI [4]: 1.12 µM and 3.54 µM
GI50 [5]: 0.251 µM
GI50 [6]: 0.0179 µM and 0.0374 µM
TGI [6]: 0.289 µM and 0.754 µM
GI50 [7]: 0.0404 µM and 0.0364 µM
TGI [7]: 0.221 µM and 0.143 µM
GI50 [8]: 0.019 µM and 0.0443 µM
TGI [8]: 0.174 µM and 0.58 µM
GI50 [9]: < 0.0124 µM
TGI [9]: 0.992 µM and 0.241 µM
GI50 [10]: 0.0269 µM and 0.0409 µM
TGI [10]: 0.124 µM and 0.168 µM

COc1ccc(-c2nsc3c2NC(=O)CC3c2ccsc2)cc1 (centres undefined)
GI50 [1]: 0.11 µM
TGI [1]: 0.846 µM
GI50 [2]: 0.528 µM
TGI [2]: > 22.7 µM
GI50 [3]: 0.269 µM
TGI [3]: > 100 µM
GI50 [4]: 0.984 µM
TGI [4]: > 100 µM
GI50 [5]: 2.15 µM
TGI [5]: 16.9 µM
GI50 [6]: 0.064 µM
TGI [6]: 0.278 µM
GI50 [7]: 0.279 µM
TGI [7]: 21 µM
GI50 [8]: 0.83 µM
TGI [8]: > 100 µM
GI50 [9]: 0.0684 µM
TGI [9]: > 100 µM
GI50 [10]: 0.295 µM
TGI [10]: 65 µM

CC(C)(C)N/N=C(/Cc1nc2c3c(ccc2[nH]c1=O)C(=O)c1ccccc1C3=O)C(=O)NC1=C(Cl)C(=O)c2ccccc2C1=O
TGI [1]: 89.5 µM
TGI [2]: > 100 µM
TGI [3]: 79.8 µM
TGI [4]: > 100 µM
TGI [5]: 88.8 µM
TGI [6]: 45.1 µM
TGI [7]: > 100 µM
TGI [8]: > 100 µM
TGI [9]: > 100 µM
TGI [10]: > 100 µM

CC(C)(Oc1ccc(-c2cccc3ccccc23)cc1)C(=O)O
TGI [1]: > 100 µM
TGI [2]: > 100 µM
TGI [3]: > 100 µM
TGI [4]: > 100 µM
TGI [5]: > 100 µM
TGI [6]: > 100 µM
TGI [7]: > 100 µM
TGI [8]: > 100 µM
TGI [9]: > 100 µM
TGI [10]: > 100 µM

CCn1c(-c2nonc2N)nc2ccccc21
GI50 [1]: > 25 µM
TGI [1]: > 25 µM
GI50 [2]: > 25 µM
TGI [2]: > 25 µM
GI50 [3]: > 22.3 µM
TGI [3]: > 25 µM
GI50 [4]: > 25 µM
TGI [4]: > 25 µM
GI50 [5]: > 14.9 µM
TGI [5]: > 25 µM
GI50 [6]: > 25 µM
TGI [6]: > 25 µM
GI50 [7]: > 25 µM
TGI [7]: > 25 µM
GI50 [8]: > 25 µM
TGI [8]: > 25 µM
GI50 [9]: > 25 µM
TGI [9]: > 25 µM
GI50 [10]: > 25 µM
TGI [10]: > 25 µM
